Measurements: PMC3913620, “Preclinical Evaluation of the Novel, Orally Bioavailable Selective Inhibitor of Nuclear Export (SINE) KPT-335 in Spontaneous Canine Cancer: Results of a Phase I Study” (PLoS ONE, 2014)

Assay: Phase I dose escalation study, toxicity assessment
Conditions: dog, in vivo, po; orally twice/week (Monday/Thursday), dogs with spontaneous cancer; read-out: maximum tolerated dose (MTD)
Description: This study was a Phase I dose escalating, open label assessment of the safety and biologic activity of KPT-335 in client owned dogs with spontaneous malignancies. Assessment of clinical toxicities and tumor response was performed at each visit. Dogs were evaluated for hematologic and biochemical toxicities every 7 days with routine bloodwork. The initial dose of 1 mg/kg orally twice per week (Monday/Thursday or Tuesday/Friday) was based on previous data from normal laboratory dogs (data not shown) and dose escalation was set at 0.25 mg/kg increments in cohorts of 3 until dose limiting toxicity (DLT) was identified. The DLT was considered to be any grade 3 or 4 hematologic or non-hematologic toxicity based on the established VCOG-CTCAE criteria. […] Disease progression or signs and symptoms definitely related to disease were not considered adverse events (AEs). The maximum tolerated dose (MTD) was considered to be one dose below that at which DLT occurred.
Each patient underwent a baseline complete history, physical examination, and pre-dose laboratory assessment that included a complete blood count (CBC), serum biochemistry profile, coagulation parameters (PT/PTT) and urinalysis. Patients were assessed for adverse events on days 7, 14, 21, and 28, and every 2 weeks thereafter at which time all laboratory assessments were repeated. […]

Compound `O=C(/C=C\n1cnc(-c2cc(C(F)(F)F)cc(C(F)(F)F)c2)n1)NNc1ccccn1` [KPT-335] has an MTD of 1.75 mg/kg.
